Data: US9573899B2, “USP7 inhibitor compounds and methods of use” (Genentech, Inc., priority 2015, dated 2017)

Tests used:
[1] = biological target: T1, USP7, full-length, native C-Terminus (Homo sapiens, UniProt Q93009); experiment: Biochemical USP7 assay with Ubiquitin-Rho110 substrate, compounds pre-incubated with USP7 (USP7_Ub-Rho preInc); settings: compounds pre-mixed with USP7, 1 hour incubation, before substrate; read-out: USP7 Ub-Rho preInc (IC50)
T1 construct: USP7, full-length, native C-Terminus, 0.2 nM
In short: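 Full-length USP7 (0.2 nM) cleaving Ubiquitin-Rho110 (1 uM) in pH 7.5 Tris buffer with DTT, 1 h at room temperature, acetic-acid quenched; Rho110 fluorescence at 485/535 nm. Pre-incubation variant: compound and USP7 mixed 1 h before substrate addition. IC50 from % inhibition versus no-enzyme and uninhibited controls.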

[2] = tested on: ubiquityl-MDM2 in SJSA-1 osteosarcoma cells; experiment: Cellular ubiquityl-MDM2 assay (MSD Ub/Total MDM2); assay type: cell-based; settings: Homo sapiens; SJSA-1 cells, low serum conditions; read-out: increase in ubiquityl-MDM2 (EC50)
Experimental: HCT116 colon cancer cells or SJSA-1 osteosarcoma cells were seeded at a density of 150,000 cell per well in 90 ml (RPMI 1640 media, 10% FBS, 1× GlutaMAX™, Gibco) in 96-well black clear bottom, TC-treated (Greiner, Cat#655090), and incubated for 2 hours at 37° C., 5% CO2 in a tissue culture incubator. Compounds were prepared in a serial dilution in DMSO at 200× the final desired concentration in a 96-well polypropylene V-bottom (Greiner, Cat#651261), then diluted 1:20 in RPMI tissue culture medium and 10 ml transferred to each well of the cell plate. Cell plates were incubated overnight for 20 hours, 37° C., 5% CO2. 20 ml of a […] stock (in RPMI) of the proteasome inhibitor, MG132 (Cayman Chemical, Cat#10012628), was added to each well. Cells were incubated for 1 hour at 37° C., 5% CO2. Quantitation of ubiquityl-MDM2 was carried out using Ub/Total MDM2 whole cell lysate kit (MSD, Cat#K15168D-2). […] MSD read buffer was prepared according to manufacturer's instructions and 150 ml added per well. Plates were read using a MSD Sector Reader. […] Percentage increase in ubiquityl-MDM2 was calculated relative to DMSO controls using Genedata Screener software.

[3] = tested on: MDM2 in MCF7 breast cancer cells; experiment: MDM2 turnover in MCF7 cells with cycloheximide (FIG. 3A); assay type: cell-based; settings: 15 μM, in the presence of cycloheximide (CHX)
Experimental: In 24-well plates, 0.15×10^6 MCF-7 cells were treated for a total of 8 h with DMSO or compounds (15 μM). During that 8 h, cycloheximide (CHX) was added for the indicated times prior to harvest.

[4] = tested on: MCF-7 p53 WT breast cancer cells; experiment: Incucyte cell proliferation and caspase activity, MCF-7 (FIG. 10, 17); assay type: cell-based; settings: MCF-7 p53 WT compared to MDA-MB157 p53 null cells; compared to 89
Experimental: 2,500-5,000 cells were seeded in 1-well of a 96-well plate (Corning; 3904). The following day, the media was changed from normal (10%) to low serum (0.5%) containing vehicle (DMSO) or compounds. 16-24 h later FBS was added to each well to bring serum levels back to normal (10%). Cells were then allowed to grow for 2 days. All treatments were done in triplicate. The day after cells were seeded, the media was changed to low serum media containing 2 μM CellEvent Caspase 3/7 reagent (Life Technologies; C10423) and compounds. The plates were placed in an IncuCyte (Essen Bioscience, Inc.) live cell imager and scanning was started 15-20 mins after. IncuCyte™ ZOOM facilitates live-cell monitoring via customized imaging protocols. Images were taken every 2 h for at least 3 days, using a 10× objective. Phase contrast was used to measure cell confluency/density while green fluorescence was used to measure caspase activity. The images were analyzed using IncuCyte software (Basic Analysis parameters) and a ratio of caspase activity to cell density was determined.

[5] = tested on: p53, p21, MDM2 and E6AP in RKO, RKO-E6, Vibo and SiHA cell lines; experiment: Western blot in RKO, RKO-E6, Vibo and SiHA cells (FIG. 14A); assay type: cell-based
Experimental: In 24-well plates, 0.10-0.15×10^6 (adherent) or 0.5×10^6 (suspension) cells were treated with 15 μM or 2.5 μM compounds, respectively, for 24 h in low serum prior to lysis for Western Blot analysis.

T1 sequence (Q93009 whole entry): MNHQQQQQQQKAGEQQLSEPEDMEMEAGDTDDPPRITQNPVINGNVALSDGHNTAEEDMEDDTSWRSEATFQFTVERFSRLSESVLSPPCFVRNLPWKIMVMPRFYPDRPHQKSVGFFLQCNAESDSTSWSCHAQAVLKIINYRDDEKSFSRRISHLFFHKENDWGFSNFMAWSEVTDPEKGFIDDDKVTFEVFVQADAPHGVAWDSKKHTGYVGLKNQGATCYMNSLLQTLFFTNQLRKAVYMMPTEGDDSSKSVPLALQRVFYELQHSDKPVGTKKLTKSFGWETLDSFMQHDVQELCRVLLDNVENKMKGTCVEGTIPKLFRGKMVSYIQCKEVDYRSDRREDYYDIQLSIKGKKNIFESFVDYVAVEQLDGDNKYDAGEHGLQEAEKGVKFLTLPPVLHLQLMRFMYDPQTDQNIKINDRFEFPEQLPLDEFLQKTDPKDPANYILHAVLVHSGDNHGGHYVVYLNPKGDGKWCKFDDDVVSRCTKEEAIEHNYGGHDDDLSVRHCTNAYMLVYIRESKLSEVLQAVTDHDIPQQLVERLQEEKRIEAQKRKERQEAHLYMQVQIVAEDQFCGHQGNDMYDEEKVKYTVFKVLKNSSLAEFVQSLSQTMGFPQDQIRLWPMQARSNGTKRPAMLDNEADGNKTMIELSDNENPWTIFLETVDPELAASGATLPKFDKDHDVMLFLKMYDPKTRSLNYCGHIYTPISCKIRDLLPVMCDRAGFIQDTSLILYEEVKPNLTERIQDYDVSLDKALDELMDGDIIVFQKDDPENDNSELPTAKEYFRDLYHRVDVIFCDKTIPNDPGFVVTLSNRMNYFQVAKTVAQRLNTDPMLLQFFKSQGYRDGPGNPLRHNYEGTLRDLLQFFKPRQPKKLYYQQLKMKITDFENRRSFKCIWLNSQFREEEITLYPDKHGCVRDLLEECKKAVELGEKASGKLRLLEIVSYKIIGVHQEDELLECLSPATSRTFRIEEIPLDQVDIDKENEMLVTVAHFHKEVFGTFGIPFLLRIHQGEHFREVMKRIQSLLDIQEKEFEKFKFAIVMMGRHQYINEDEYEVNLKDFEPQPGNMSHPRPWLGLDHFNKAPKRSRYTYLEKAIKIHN

CCc1c(-c2ccc3[nH]ncc3c2)cnc(N)c1-c1ccc(O)cc1 [Compound 88, 4-[2-amino-4-ethyl-5-(1H-indazol-5-yl)-3-pyridyl]phenol]
IC50 [1]: 2.1 µM
EC50 [2]: 2 µM
destabilizing effect on MDM2 (western blot) [3]: destabilizing effects
cell viability (Incucyte proliferation and caspase activity) [4]: decreases cell viability
effect on p53, p21, MDM2 and E6AP (western blot) [5]: stabilize p53, p21, and destabilize MDM2 and E6AP
